Molecular target: T1, androgen receptor (Rattus norvegicus, UniProt P15207)
T1 construct: from tissue; host or cells: prostate cytosol (209,000 g supernatant) of male Sprague Dawley rats castrated 24 hours previously
T1 sequence (P15207 1-902): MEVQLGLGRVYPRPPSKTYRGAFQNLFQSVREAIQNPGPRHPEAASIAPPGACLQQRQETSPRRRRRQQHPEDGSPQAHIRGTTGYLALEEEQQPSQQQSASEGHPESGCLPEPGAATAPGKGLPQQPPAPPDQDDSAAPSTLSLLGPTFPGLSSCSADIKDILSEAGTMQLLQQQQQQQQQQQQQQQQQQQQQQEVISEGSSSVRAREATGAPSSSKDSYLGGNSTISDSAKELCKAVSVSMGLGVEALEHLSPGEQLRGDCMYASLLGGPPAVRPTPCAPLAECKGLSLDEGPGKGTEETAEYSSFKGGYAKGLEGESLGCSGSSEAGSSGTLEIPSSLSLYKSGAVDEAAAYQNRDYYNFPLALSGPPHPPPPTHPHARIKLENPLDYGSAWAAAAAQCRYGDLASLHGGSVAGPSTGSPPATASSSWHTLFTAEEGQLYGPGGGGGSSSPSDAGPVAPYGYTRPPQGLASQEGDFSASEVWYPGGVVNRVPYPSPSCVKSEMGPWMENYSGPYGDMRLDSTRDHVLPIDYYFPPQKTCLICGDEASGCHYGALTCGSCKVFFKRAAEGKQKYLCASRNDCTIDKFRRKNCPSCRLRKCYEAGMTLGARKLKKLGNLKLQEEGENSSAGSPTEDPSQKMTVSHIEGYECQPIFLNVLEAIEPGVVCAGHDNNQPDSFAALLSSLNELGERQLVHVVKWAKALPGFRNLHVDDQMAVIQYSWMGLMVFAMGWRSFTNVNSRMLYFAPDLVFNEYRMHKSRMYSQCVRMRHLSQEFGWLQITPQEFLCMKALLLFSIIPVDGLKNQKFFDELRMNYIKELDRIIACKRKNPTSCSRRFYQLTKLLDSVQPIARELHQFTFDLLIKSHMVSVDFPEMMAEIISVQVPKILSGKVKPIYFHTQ
Test: Affinity of the products for the androgen receptor (relative bond affinity, displacement of tritiated testosterone in prostate cytosol)
Type: binding
Method: Study of the affinity of the products for the androgen receptor
Calculation of the relative bond affinity (RBA).
The following 2 curves were drawn: the percentage of bound tritiated hormone B/T as a function of the logarithm of the concentration of the unlabelled reference hormone and B/T as a function of the logarithm of the concentration of the unlabelled tested product. The straight line of the equation I50 =(B/Tmax+B/Tmin)/2 was determined.
B/T max=% of the bound tritiated hormone for an incubation of this tritiated hormone at the concentration (T).
B/T min=% of the bound tritiated hormone for an incubation of this tritiated hormone at the concentration (T) in the presence of a large excess of unlabelled hormone (2500.10^-9 M).
The intersections of the straight line I50 and the curves allowed the evaluation of the concentrations of the unlabelled reference hormone (CH) and of the tested unlabelled product (CX) which inhibit by 50% the binding of the tritiated hormone on the receptor.

Compound | RBA: Incubation 24 hours
N#Cc1ccc(N2C(=O)N(CCCCO)C3(CCOCC3)C2=O)cc1C(F)(F)F [Example 3, 4-(2,4-dioxo-1-(4-hydroxybutyl)-8-oxa-1,3-diazaspiro[4.5]decan-3-yl)-2-(trifluoromethyl)-benzonitrile] | 6
N#CCN1C(=O)N(c2ccc(C#N)c(C(F)(F)F)c2)C(=O)C12CCOCC2 [Example 10, 3-(4-cyano-3-(trifluoromethyl)-phenyl)-2,4-dioxo-8-oxa-1,3-diazaspiro[4.5]decan-1-acetonitrile] | 5
